Two substances from patent US5225543A, “Receptors method for purification of G protein-linked” (priority 1991, dated 1993) can be followed below.

In assay [1] the target is T1, SRIF receptor (GH4 C1 membranes) (Rattus norvegicus, UniProt P30680).
T1 construct: GH4 C1 rat pituitary tumor cells; endogenous in cells; host or cells: GH4 C1 rat pituitary tumor cells (isolated membranes)
In words: Scatchard analysis of [^125 I]-labelled ligand binding to GH4 C1 membranes (FIG. 5). Conditions: read-out: dissociation constant (KD). The protocol: 1. Standard Binding Assays--Binding assays are done in a binding buffer containing 50 mM HEPES (pH 7.4), 0.5% BSA and 5 mM MgCl2. The standard assay for [^125 I]SRIF analog binding to GH4 CL membranes, done in 96 well microtiter plates (Dynatech Immulon II Removawell plates), is carried out as follows: 1. Radioligand is diluted in binding buffer+PMSF/Baci to the desired cpm per vol. of 50 μl and then 50 μl aliquots are added to the wells. For non-specific binding samples, 5 μl of 40 μM cold S14 is also added per well. 2. Binding is initiated by adding 150 μl per well of membrane diluted to the desired concentration (10-30 ug membrane protein/well) in binding buffer+PMSF/Baci. Plates are then covered with Linbro mylar plate sealers (Flow Labs) and placed on a Dynatech Microshaker II and binding is allowed to proceed at room temperature for 1-2 hours. Binding is stopped by centrifuging the plate for 15 minutes at 2,000×g. The supernatants are dumped off and membrane pellets washed once by addition of 200 μl of ice cold binding buffer, brief shaking and recentrifugation. Finally the individual wells are placed in 12×75 mm tubes and counted in an LKB Gammamaster counter (78% efficiency). Specific binding by this method is identical to that measured when free ligand is removed by rapid (3-5 seconds) filtration and washing on polyethyleneimine-coated glass fiber filters.
3. […]

Assay [2] has as its target T1, SRIF receptor (GH4 C1 membranes). Description: Binding of [^125 I] biotinyl-SRIF ligands to GH4 C1 membranes (CPM bound/mg). As to conditions: radioligand 0.77×10^6 cpm/ml. The method, then:
4. Larger scale binding assays to obtain membrane pellets for studies on solubilization of receptor:ligand complex and for receptor purification are also carried out. These are identical to the standard assays except that: (a) Binding is carried out in polypropylene tubes in volumes from 1-250 ml, with the wash step being done in the same volume as initially used for binding, (b) Concentration of membrane protein is always 0.5 mg/ml, (c) For receptor purification, BSA concentration in the binding buffer is reduced to 0.25% and the wash step is done with binding buffer without BSA. This is to reduce BSA contamination of the purified receptor.
To compare the three biotinyl-SRIF analogs in terms of binding to streptavidin, the following experiment is done. [^125 I]Bio-SRIF analogs are bound to GH4 C1 membranes as described ("Methods: Receptor Binding Methods, 4"). All radioligands are at a concentration of 0.77×10^6 cpm/ml. For each radioligand, a control for non-specific binding is done in the presence of 1 uM cold S14. […] At the times shown, the SA beads are spun down and 100 ul samples of supernatant are counted. The cpm are compared to initial cpm in the sample and % binding to SA is calculated from this. […]

Assay [3] concerns streptavidin (SA-agarose). Description: Binding of [^125 I]-labelled biotinyl-SRIFs (solubilized R:L complex) to immobilized streptavidin (Table 3). The method, then: (§1) 3. Adsorption of solubilized R:L complex to streptavidin. Immobilized streptavidin (streptavidin cross-linked to 6% beaded agarose, Pierce Chemical Co.; "SA-agarose") is washed in solubilization buffer and added to the solubilized membranes as 1/30 of the final volume. This mixture is incubated with constant stirring by end-over-end rotation for 4-5 hours at 4°-10° C. Then the mixture is applied to a column and the non-bound material is washed through. Binding of radioligand to SA-agarose is determined by comparing cpm in the 100,000×g supernatant with that in the column effluent after adsorption to SA-agarose. Finally, the column is washed with 12-15 column volumes of solubilization buffer+0.15% deoxycholate:lysolecithin+1/500 (vol/vol) 100×4pase.
To compare the three biotinyl-SRIF analogs in terms of binding to streptavidin, the following experiment is done. [^125 I]Bio-SRIF analogs are bound to GH4 C1 membranes as described ("Methods: Receptor Binding Methods, 4"). All radioligands are at a concentration of 0.77×10^6 cpm/ml. For each radioligand, a control for non-specific binding is done in the presence of 1 uM cold S14. CPM bound/mg membrane protein after the binding step are as follows: [^125 I]Bio-6C-S14=755,020 (total) and 43,361 (non-specific); [^125 I]Bio-12C=S14=633,134 (total) and 39,538 (nonspecific); [^125 I]Bio-S28=1,065,512 (total) and 35,049 (nonspecific). The membrane pellets are solubilized in solubilization buffer containing 0.15% deoxycholate:lysolecithin and 0.2 mM MgCl2 as described ("Methods: Membrane Solubilization"). […] One ml samples of solubilized membranes are incubated with 0.05 ml vols of streptavidin-agarose at 4°-10° C. on a tube rotator for the times shown. Non-specific binding samples are not done due to the low levels of non-specific binding. At the times shown, the SA beads are spun down and 100 ul samples of supernatant are counted. The cpm are compared to initial cpm in the sample and % binding to SA is calculated from this. Also, it should be noted that binding of cpm from the supernatant is considered to parallel the binding of R:L complex. Several observations confirm that this is a valid assumption.
CPM are determined for 100 ul samples of initial 100,000×g supernatant (containing soluble R:L complex) and supernatant after incubation with SA-agarose for times shown.

Assay [4] addresses T1, SRIF receptor (GH4 C1 membranes). In words: Competitive radioligand binding vs [^125 I]Tyr11-S14 on GH4 C1 membranes (FIG. 4). As to conditions: vs [^125 I]Tyr11-S14; 20 ug GH4 C1 membrane protein, 100,000 cpm (FIG. 4B).
Description: Membrane Isolation--1-8 liter batches of cells at densities of 6-10×10^5 cells/ml are pelleted in conical bottom glass centrifuge bottles (600 or 800 ml; Bellco) at 1,000× g for 5 min. The supernatants are carefully poured off and the cells are resuspended in ice cold homogenization medium (1 mM Na-bicarbonate at pH 7.6, 1 mM EDTA and 1 mM EGTA) containing 0.7% (vol/vol) of the "100×4pase" protease inhibitor cocktail (see below). Twenty ml of homogenization medium is used for every liter of suspension culture. After 5 min. on ice, the hypotonically swollen cells are homogenized with 10 strokes of a tight fitting Dounce homogenizer (Kontes, type A pestle). The homogenate is centrifuged at 1,000× g for 10 min. and the supernatant is removed and kept on ice. The 1,000× g pellet containing residual intact cells, nuclei and DNA is washed by gently homogenizing with 4 strokes with a type B pestle in one half the original volume of homogenization medium and recentrifuging for 10 min. at 1,000× g. The final 1,000× g pellet consists mostly of DNA and is discarded. The 1,000× g supernatants are combined and centrifuged at 20,000× g for 30 min. The 20,000× g pellet is washed twice in 25 mM Tris (pH 7.4), with centrifugation for 25 min. at 20,000 2 g. Final membrane pellets are resuspended in 25 mM Tris buffer to concentrations of 4-10 mg membrane protein/ml. Then the 100× 4pase protease inhibitor cocktails are added to 1% of final volume and aliquots are frozen on dry ice. Membranes are stored at -90° C. until needed. Membrane protein is assayed with the Bradford dye binding assay (Bio-Rad).
Standard Binding Assays--Binding assays are done in a binding buffer containing 50 mM HEPES (pH 7.4), 0.5% BSA and 5 mM MgCl2. The standard assay for [^125 I]SRIF analog binding to GH4 CL membranes, done in 96 well microtiter plates (Dynatech Immulon II Removawell plates), is carried out as follows: 1. Radioligand is diluted in binding buffer+PMSF/Baci to the desired cpm per vol. of 50 μl and then 50 μl aliquots are added to the wells. For non-specific binding samples, 5 μl of 40 μM cold S14 is also added per well. […] Binding is initiated by adding 150 μl per well of membrane diluted to the desired concentration (10-30 ug membrane protein/well) in binding buffer+PMSF/Baci. Plates are then covered with Linbro mylar plate sealers (Flow Labs) and placed on a Dynatech Microshaker II and binding is allowed to proceed at room temperature for 1-2 hours. Binding is stopped by centrifuging the plate for 15 minutes at 2,000×g. The supernatants are dumped off and membrane pellets washed once by addition of 200 μl of ice cold binding buffer, brief shaking and recentrifugation. Finally the individual wells are placed in 12×75 mm tubes and counted in an LKB Gammamaster counter (78% efficiency). […]
For assay [5] the target is unchanged. Description: Tracing of SRIF R:L complex with [^125 I]Bio-S28 during purification: membrane binding and solubilization (Table 4). The protocol: 1. Binding of biotinyl-SRIF to GH4 C1 membranes. The binding step is carried out as described in Section 4 of "Receptor Binding Methods". Incubations are for 1 hour at room temperature. In the standard purification protocol, the binding incubations contain 10 nM […]/[^125 I]Bio-S28 is added as a tracer at levels of 5,000-100,000 cpm per mg of membrane protein. Control incubations contain 10 uM cold S14 to saturate the receptor with non-biotinylated ligand.
2. Solubilization of receptor:ligand complex. This is done as described ("Membrane Solubilization"), with 0.15% deoxycholate:lysolecithin in solubilization buffer containing 0.2 mM MgCl2, to obtain 100,000×g supernatants containing solubilized R:L complex.
(§2) A preparation of SRIF receptor is purified from 17 mg GH4 C1 pituitary cell membranes as described in "Methods: Receptor Purification". Some important features of this experiment are as follows: Two 17 mg samples of membranes are used. Both are incubated with 10^-8 M Bio-S28. However, one sample also receives 10^-5 M non-biotinyl S14 for 23 minutes before addition of any Bio-S28. This serves to block binding of Bio-S28 and creates a control to show non-specific binding of proteins to the streptavidin column. Also, each sample received 1.5×10^8 cpm of [^125 I]Bio-S28 as a tracer. This is added 2-3 minutes before the addition of cold Bio-S28. After a 1-hour binding step, the membranes are washed in binding buffer without BSA and solubilized in solubilization buffer containing 0.15% deoxycholate:lysolecithin and 0.2 mM MgCl2. Each 100,000×g supernatant (17 ml) is incubated with 0.6 ml of streptavidin-agarose for 4 hours at 4°-10° C. The SA-agarose is transferred to a 0.7 cm diameter column, washed and eluted with EDTA/EGTA/GTP-gamma-S as described ("Methods: Receptor Purification").
(§3) Radioligand is followed through the procedure to estimate solubilization of R:L complex and % initial binding of R:L complex to immobilized streptavidin.

Another assay has as its target T2, streptavidin (Streptomyces avidinii, UniProt P22629).
T2 construct: purchased Pierce Chemical Co
Description: Tracing of SRIF R:L complex with [^125 I]Bio-S28 during purification: binding to immobilized streptavidin (Table 4). The method, then:
as §1, §2, §3

Assay [6] has as its target T1, SRIF receptor (GH4 C1 membranes). Description: Purification method as receptor assay: binding of biotinyl-S28 to GH4 C1 membranes (FIG. 10). As to conditions: 10 nM B28 in binding step. The protocol: Soluble material is adsorbed to streptavidin-Sepharose for 4 hours and eluted with 100 uM GTP-gamma-S+100 uM EDTA+100 uM EGTA. Then the GTP-gamma-S eluates are incubated overnight with immobilized wheat germ agglutinin (to adsorb glycoproteins, including the receptor).
The WGA-agarose pellets are washed and then boiled in SDS polyacrylamide gel sample buffer (to melt the agarose and solubilize proteins). […] The proteins not bound to WGA are processed separately and also separated by SDS-PAGE (FIG. 10C).

Where [7] appears, read: 10^-8 M Bio-S28 + 10^-5 M S14 (NSB).
Where [8] appears, read: 10^-8 M Bio-S28, [^125 I]Bio-S28 tracer.
Setting [9] is: 10^-8 M Bio-S28, [^125 I]Bio-S28 tracer, 4 hours.

T2 sequence (P22629 25-183): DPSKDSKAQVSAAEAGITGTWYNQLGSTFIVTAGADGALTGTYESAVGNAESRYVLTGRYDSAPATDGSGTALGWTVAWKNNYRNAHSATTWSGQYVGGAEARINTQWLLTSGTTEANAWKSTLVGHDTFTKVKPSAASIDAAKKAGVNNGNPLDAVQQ
T1 sequence (P30680 whole entry): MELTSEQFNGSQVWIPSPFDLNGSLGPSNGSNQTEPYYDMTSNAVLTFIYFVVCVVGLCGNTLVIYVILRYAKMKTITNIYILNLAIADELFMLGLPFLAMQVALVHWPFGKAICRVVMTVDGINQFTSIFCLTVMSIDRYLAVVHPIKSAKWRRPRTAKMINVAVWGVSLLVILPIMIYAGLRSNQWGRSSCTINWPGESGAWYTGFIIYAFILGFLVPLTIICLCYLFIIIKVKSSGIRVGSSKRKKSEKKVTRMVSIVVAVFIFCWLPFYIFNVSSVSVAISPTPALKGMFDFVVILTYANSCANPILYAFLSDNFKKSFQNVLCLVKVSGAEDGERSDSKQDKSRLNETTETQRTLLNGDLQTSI

Usually Kd stands for the equilibrium constant for the complex coming apart. As to “biotinyl-NH(Leu8, D-Trp22, [^125 I]Tyr25)SRIF [[^125 I]Bio-S28]”, the Kd in assay [1] turned out to be 0.2 nM. Moreover, the “CPM bound/mg membrane protein, nonspecific” value in assay [2] (in presence of 1 uM cold S14) was 35,049 CPM bound/mg membrane protein. Moreover, the “CPM bound/mg membrane protein, total” value in assay [2] (total) was 1,065,512 CPM bound/mg membrane protein. Besides, the “binding of solubilized R:L complex to immobilized streptavidin vs Bio-6C-S14 and Bio-12C-S14” value in assay [3] is given as “binds somewhat better”. The “Initial CPM” value in assay [3] (100 ul of initial 100,000×g supernatant) is recorded as 92,534 CPM. Besides, the “% Binding of radioligand to SA-agarose, 1 hour” value in assay [3] (1 hour) is 66%. In addition, the “% Binding of radioligand to SA-agarose, 3 hours” value in assay [3] (3 hours) was 82%. Also, the “Non-bound CPM, 1 hour” value in assay [3] (supernatant after 1 hour with SA-agarose) is recorded as 31,645 CPM. The “Non-bound CPM, 3 hours” value in assay [3] (supernatant after 3 hours with SA-agarose) is 17,098 CPM.
One may read the IC50 as the point on the concentration scale where inhibition reaches its midpoint. Read a low IC50 as greater potency in that assay. “Biotinyl-NH-(Leu8, D-Trp22, Tyr25)SRIF28 [Bio-S28]” yielded an IC50 in assay [4] of 0.3 nM. For the same substance, in assay [5] (setting [7]), the “CPM initially bound to membranes (NSB)” value is listed as 9,316 CPM, the “CPM solubilized by deoxycholate:lysolecithin (%) (NSB)” value worked out at 73% and the “CPM solubilized by deoxycholate:lysolecithin (NSB)” value is reported as 6,834 CPM. In assay [5] (setting [8]), the “CPM initially bound to membranes” value was 59,132 CPM, the “CPM solubilized by deoxycholate:lysolecithin” value was 54,094 CPM and the “CPM solubilized by deoxycholate:lysolecithin (%)” value is 91%. On streptavidin (setting [7]), the “Solubilized CPM non-bound to streptavidin (%) (NSB)” value was 15% and the “Solubilized CPM non-bound to streptavidin (NSB)” value is on record as 1,054 CPM. For the same substance, at streptavidin (setting [9]), the “Solubilized CPM non-bound to streptavidin” value is given as 14,960 CPM and the “Solubilized CPM non-bound to streptavidin (%)” value was found to be 28%. Besides, the “total specific binding at or near saturation” value in assay [6] was 1.8 pmol.
